Calls of active or inactive are those of the source. The rule behind the calls is not given here.
Key:
[1] = Cytotoxicity against human Chang liver cells assessed as reduction in cell viability after 24 hrs by DAPI staining-based fluorescence assay
MCF7 = experiment: Cytotoxicity against human MCF7 cells assessed as reduction in cell viability after 24 hrs by DAPI staining-based fluorescence assay; format: functional; settings: MCF7, 24 h
WI-38 = experiment: Cytotoxicity against human WI-38 cells assessed as reduction in cell viability after 24 hrs by DAPI staining-based fluorescence assay; settings: WI-38, 24 h
[2] = Selectivity index, ratio of IC50 for human chang liver cells to IC50 for human HelaM cells
M-HeLa [3] = experiment: Induction of apoptosis in human HelaM cells assessed as late apoptotic cells at 10 uM after 24 hrs by V-FITC/propidium iodide staining-based flow cytometric analysis (reference value: 0.62 %); format: functional
M-HeLa [4] = experiment: Induction of apoptosis in human HelaM cells assessed as viable cells at 25 uM after 24 hrs by V-FITC/propidium iodide staining-based flow cytometric analysis (reference value: 93.33 %); format: functional; settings: read-out: Activity
M-HeLa [5] = experiment: Induction of mitochondrial membrane potential loss in human HelaM cells assessed as cell population with mitochondrial membrane potential collapse at 25 uM by JC-10 staining-based flow cytometric analysis (reference value: 22.17 %); format: functional
M-HeLa [6] = experiment: Cytotoxicity against human HelaM cells assessed as reduction in cell viability after 24 hrs by DAPI staining-based fluorescence assay; format: functional
M-HeLa [7] = experiment: Induction of mitochondrial membrane potential loss in human HelaM cells assessed as cell population with mitochondrial membrane potential collapse at 10 uM by JC-10 staining-based flow cytometric analysis (reference value: 22.17 %); format: functional
M-HeLa [8] = experiment: Induction of apoptosis in human HelaM cells assessed as early apoptotic cells at 10 uM after 24 hrs by V-FITC/propidium iodide staining-based flow cytometric analysis (reference value: 1.5 %); format: functional
M-HeLa [9] = experiment: Induction of apoptosis in human HelaM cells assessed as necrotic cells at 25 uM after 24 hrs by V-FITC/propidium iodide staining-based flow cytometric analysis (reference value: 4.55 %); format: functional
M-HeLa [10] = experiment: Induction of mitochondrial membrane potential loss in human HelaM cells assessed as cell population with intact mitochondrial membrane potential at 10 uM by JC-10 staining-based flow cytometric analysis (reference value: 77.48 %); format: functional
M-HeLa [11] = experiment: Induction of apoptosis in human HelaM cells assessed as necrotic cells at 10 uM after 24 hrs by V-FITC/propidium iodide staining-based flow cytometric analysis (reference value: 4.55 %); format: functional
M-HeLa [12] = experiment: Induction of mitochondrial membrane potential loss in human HelaM cells assessed as cell population with intact mitochondrial membrane potential at 25 uM by JC-10 staining-based flow cytometric analysis (reference value: 77.48 %); format: functional
M-HeLa [13] = experiment: Induction of apoptosis in human HelaM cells assessed as early apoptotic cells at 25 uM after 24 hrs by V-FITC/propidium iodide staining-based flow cytometric analysis (reference value: 1.5 %); format: functional
M-HeLa [14] = experiment: Induction of apoptosis in human HelaM cells assessed as late apoptotic cells at 25 uM after 24 hrs by V-FITC/propidium iodide staining-based flow cytometric analysis (reference value: 0.62 %); format: functional
M-HeLa [15] = experiment: Induction of apoptosis in human HelaM cells assessed as viable cells at 10 uM after 24 hrs by V-FITC/propidium iodide staining-based flow cytometric analysis (reference value: 93.33 %); format: functional; settings: read-out: Activity
M-HeLa [16] = experiment: Induction of apoptosis in human HelaM cells assessed as increase in Bad level at 10 uM incubated for 24 hrs; format: functional, cell-based
M-HeLa [17] = experiment: Induction of apoptosis in human HelaM cells assessed as increase in Akt level at 10 uM incubated for 24 hrs; format: functional, cell-based
M-HeLa [18] = experiment: Induction of apoptosis in human HelaM cells assessed as increase in Bcl2 level at 10 uM incubated for 24 hrs; format: functional, cell-based
M-HeLa [19] = experiment: Induction of apoptosis in human HelaM cells assessed as increase in JNK level at 10 uM incubated for 24 hrs; format: functional, cell-based
M-HeLa [20] = experiment: Induction of apoptosis in human HelaM cells assessed as increase in caspase-9 level at 10 uM incubated for 24 hrs; format: functional, cell-based
M-HeLa [21] = experiment: Induction of apoptosis in human HelaM cells assessed as increase in p53 level at 10 uM incubated for 24 hrs; format: functional, cell-based
M-HeLa [22] = experiment: Induction of apoptosis in human HelaM cells assessed as increase in caspase-8 level at 10 uM incubated for 24 hrs; format: functional, cell-based

Row | Compound | IC50 [1] [µM] | IC50 (MCF7) [µM] | IC50 (WI-38) [µM] | Ratio IC50 [2] | Activity (M-HeLa [3]) [%] | viability at 25 µM (M-HeLa [4]) [%] | Activity (M-HeLa [5]) [%] | IC50 (M-HeLa [6]) [µM] | Activity (M-HeLa [7]) [%] | Activity (M-HeLa [8]) [%] | Activity (M-HeLa [9]) [%] | Activity (M-HeLa [10]) [%] | Activity (M-HeLa [11]) [%] | Activity (M-HeLa [12]) [%] | Activity (M-HeLa [13]) [%] | Activity (M-HeLa [14]) [%] | viability at 10 µM (M-HeLa [15]) [%] | other results
1 | CC(=O)OC[C@H]1O[C@@H](n2cc(COC(=O)[C@]3(C)CCC[C@@]4(C)[C@@H]5CC[C@@]6(C)C[C@]5(CC[C@@H]43)CC6=O)nn2)[C@H](OC(C)=O)[C@@H]1OC(C)=O | > 100 | > 10 | > 100 | >53 | 20.94 | 53.9 | 90.09 | 1.9 | 44.73 | 11.71 | 0 | 55.17 | 0.03 | 9.86 | 22.44 | 23.66 | 67.3 | –
2 | CC(=O)OC[C@H]1O[C@@H](n2cc(COC(=O)[C@]3(C)CCC[C@@]4(C)[C@@H]5CC[C@@]6(C)C[C@]5(CC[C@@H]43)CC6=O)nn2)[C@H](OC(C)=O)[C@@H](OC(C)=O)[C@H]1OC(C)=O | > 100 | > 10 | 69.7 | >56 | 9.09 | 77.7 | 84.65 | 1.8 | 40.74 | 7.95 | 1.26 | 59.16 | 0.91 | 15.35 | 9.53 | 11.5 | 82 | Activity (M-HeLa [16]): Active; Activity (M-HeLa [17]): Active; Activity (M-HeLa [18]): Active; Activity (M-HeLa [19]): Active; Activity (M-HeLa [20]): Active; Activity (M-HeLa [21]): Active; Activity (M-HeLa [22]): Active
3 | CC(=O)OC[C@H]1O[C@@H](n2cc(COC(=O)[C@]3(C)CCC[C@@]4(C)[C@@H]5CC[C@@]6(C)C[C@]5(CC[C@@H]43)CC6=O)nn2)[C@H](OC(C)=O)[C@@H](OC(C)=O)[C@@H]1OC(C)=O | 68.3 | > 10 | 36 | 8.5 | – | – | – | 8 | – | – | – | – | – | – | – | – | – | –
4 | COc1cccc2c1C(=O)c1c(O)c3c(c(O)c1C2=O)C[C@@](O)(C(=O)CO)C[C@@H]3O[C@H]1C[C@H](N)[C@H](O)[C@H](C)O1 [DOXORUBICIN] | 3 | – | – | – | – | – | – | – | – | – | – | – | – | – | – | – | – | –
5 | CC(=O)O[C@@H]1[C@H](OC(C)=O)[C@H](OC(C)=O)CO[C@H]1n1cc(COC(=O)[C@]2(C)CCC[C@@]3(C)[C@@H]4CC[C@@]5(C)C[C@]4(CC[C@@H]32)CC5=O)nn1 | > 100 | > 10 | 40 | >59 | 8.21 | 79.2 | 86.44 | 1.7 | 40.23 | 9.53 | 0.66 | 59.62 | 0.34 | 13.46 | 8.57 | 11.59 | 81.9 | –
